Values of other authors in patent publication US11877993B1, “Gamma-hydroxybutyrate salts for the treatment of psychological disorders” (priority 2021, dated 2024).

Test system: patients with severe PTSD
Conditions: MDMA-assisted therapy

## CNC(C)Cc1ccc2c(c1)OCO2 (stereo not drawn) [MDMA, 3,4-methylenedioxymethamphetamine]
Individuals with severe PTSD, even with comorbidities
  Tolerability: well-tolerated
Severe PTSD, P<0.0001
  Attenuation in CAPS-5 score compared with placebo, effect size d: 0.91
Severe PTSD, P=0.0116
  Decrease of SDS total score, effect size d: 0.43
